Laboratory results reported in patent US20110044973A1, “TREATMENT OF CYSTIC DISEASE WITH LYSOPHOSPHATIDIC ACID ANTAGONISTS” (priority 2009, published 2011).

System: mpkCCDc14 cell line
Assay: Short-circuit current electrophysiology in renal principal cells
Format: cell-based, mouse
Conditions: FIG. 4
Description: Described herein is the method of short-circuit electrophysiology used for detailed examination of the nature of the ion channels stimulated in response to cyst fluid. These studies utilized mouse principal cells of the kidney cortical collecting duct, clone 4 (mpkCCDc14) cell line. These cells have the characteristics of the principal cell type found in the distal portion of the renal nephron. Principal cells often line renal cysts. […] This finding is in agreement with Granthan et al. However, the activation of other ion channels by the fluid was also discovered. When examined in real time, the nature of channel activity by the cyst was quite different than the activity seen in response to forskolin, as shown in FIG. 1. These studies indicate that there are components found in cyst fluid that stimulate multiple ion transporters, which together cause electrolyte and fluid secretion into the cyst lumen.
Electrophysiological testing of effects NASPA on short circuit current. Cell preparations were pre-incubated with NASPA (10 μM) or diluent (DMSO) for 15 minutes prior to administration of 10% fetal bovine serum (FBS). FBS was administered serosally at time zero.
Electrophysiological testing of effects VPC 32183 on LPA induced increase in short circuit current. […]

CCCCCCCCCCCCCCCC(=O)N[C@@H](COP(=O)(O)O)C(=O)O [NASPA]
effect on response to LPA added as part of fetal bovine serum (short circuit current) (NASPA 10 μM pre-incubated 15 minutes, 10% FBS added serosally at time zero, versus diluent (DMSO)): antagonized the LPA added as part of the fetal bovine serum | effect on short circuit current when first added (NASPA 10 μM, 15 minutes pre-incubation before 10% FBS): appeared to act like an agonist when first added
